Results taken from patent US20230372375A1, “SGLT-2 INHIBITOR SARCOSINE CO-CRYSTAL, PREPARATION METHOD THEREFOR AND USE THEREOF” (Beijing Creatron Institute of Pharmaceutical Research Co. …, priority 2020, published 2023).
Values joined by “and” are separate entries in the source; they are usually repeats but may differ in a detail not shown here. Equal values may be shown once. Read-outs that look alike come from different tables or passages of the source. Each block holds one compound with its values, some of them ahead of it.

Tests used:
[1] = Comparison of sieving performance; details: 30 g, 80 mesh sieve, 1400 rpm, 20 minutes
[2] = Particle size by laser particle size analyzer; details: water as a dispersant
[3] = Fluidity (angle of repose, bulk density, tap density); details: BT-1000 powder comprehensive property tester
[4] = Influencing factors test (physical and chemical stability) of dapagliflozin crystal forms, Test Example 1
Procedure: The materials of the two crystal forms were directly exposed for 10 days to conditions of high temperature of 60° C.±2° C., light irradiation of 4500LX±500LX, and high humidity RH75%±5%, to investigate the physical stability and chemical stability of the two crystal forms.

[5] = Influencing factors test (physical and chemical stability) of canagliflozin crystal forms, Test Example 2; assay type: physicochemical; design: Impurity RRT0.73 content / Impurity RRT0.93 content / Impurity RRT1.12 content / Impurity RRT1.17 content / Impurity RRT2.25 content / Impurity RRT2.28 content / Impurity RRT0.57 content / Impurity RRT0.67 content: unit not given here
Procedure: The canagliflozin-sarcosine cocrystal and canagliflozin hemihydrate (original crystal form) were tested for influencing factors.

[6] = RH80%/25° C. 24 h
physchem = details: thermodynamic from solid
[7] = 60° C., directly exposed 10 days
[8] = Light irradiation of 5000 Lx, 10 days
[9] = Directly exposed at 60° C. for 10 days
[10] = Directly exposed at 5000 LX for 10 days
[11] = Directly exposed at RH75% for 10 days
[12] = light irradiation of 5000LX for 10 days
[13] = artificial gastric juice, 25 °C, simulated gastric fluid
[14] = artificial intestinal juice, 25 °C, fassgf or other biorelevant
[15] = citrate buffer of pH 3.0, 25 °C, pH 3, aqueous buffer
[16] = hydrochloric acid of pH 1.0, 25 °C, pH 1, simulated gastric fluid
[17] = phosphate buffer, 25 °C, pH 6.8, aqueous buffer

- Average yield (%) after sieving [1]: 86.0%
- Situations after sieving [1]: Almost no large particles but a
- Yield after sieving (%, n = 3), single runs ([1]; listed as Dapagliflozin (S)-propylene glycol hydrate): 85.2, % and 87.7, % and 84.9%
- D10 (μm) [2]: 2.492 μm
- D50 (μm) [2]: 61.55 μm
- D90 (μm) [2]: 256.2 μm
- Angle of repose (°) [3]: 48 °
- Bulk density [3]: 0.35 g/mL
- Tap density [3]: 0.53 g/mL
- Impurity 6 (RT 21.65 min, RRT 1.06) content ([4]; 0 day): 0.01
- Impurity 7 (RT 22.01 min, RRT 1.07) content ([4]; 0 day): 0.01
- Impurity 10 (RT 33.01 min, RRT 1.61) content ([4]; 0 day): 0.02
- Impurity 11 (RT 33.72 min, RRT 1.65) content ([4]; 0 day): 0.01
- Impurity 12 (RT 34.69 min, RRT 1.69) content ([4]; 0 day): 0.01
- Impurity 13 (RT 39.10 min, RRT 1.91) content ([4]; 0 day): 0.02
- Number of impurities ([4]; 0 day): 6
- Property (appearance) ([4]; 0 day): White
- Total content of impurities (%) ([4]; 0 day): 0.07%
- Impurity 1 (RT 7.45 min, RRT 0.36) content [4, 7]: 0.02
- Impurity 2 (RT 10.46 min, RRT 0.51) content [4, 7]: 0.14
- Impurity 3 (RT 14.06 min, RRT 0.69) content [4, 7]: 0.01
- Impurity 4 (RT 14.62 min, RRT 0.71) content [4, 7]: 0.21
- Impurity 5 (RT 16.02 min, RRT 0.78) content [4, 7]: 0.01
- Impurity 6 (RT 21.65 min, RRT 1.06) content [4, 7]: 0.01
- Impurity 7 (RT 22.01 min, RRT 1.07) content [4, 7]: 0.01
- Impurity 8 (RT 27.17 min, RRT 1.33) content [4, 7]: 0.02
- Impurity 9 (RT 30.53 min, RRT 1.49) content [4, 7]: 0.02
- Impurity 10 (RT 33.01 min, RRT 1.61) content [4, 7]: 0.02
- Impurity 11 (RT 33.72 min, RRT 1.65) content [4, 7]: 0.01
- Impurity 12 (RT 34.69 min, RRT 1.69) content [4, 7]: 0.01
- Impurity 13 (RT 39.10 min, RRT 1.91) content [4, 7]: 0.02
- Number of impurities [4, 7]: 13
- Property (appearance) [4, 7]: Melted
- Total content of impurities (%) [4, 7]: 0.50%
- Impurity 6 (RT 21.65 min, RRT 1.06) content [4, 8]: 0.01
- Impurity 7 (RT 22.01 min, RRT 1.07) content [4, 8]: 0.01
- Impurity 10 (RT 33.01 min, RRT 1.61) content [4, 8]: 0.02
- Impurity 11 (RT 33.72 min, RRT 1.65) content [4, 8]: 0.01
- Impurity 12 (RT 34.69 min, RRT 1.69) content [4, 8]: 0.01
- Impurity 13 (RT 39.10 min, RRT 1.91) content [4, 8]: 0.02
- Number of impurities [4, 8]: 6
- Total content of impurities (%) [4, 8]: 0.08%
- Impurity 6 (RT 21.65 min, RRT 1.06) content ([4]; RH75%, 10 days): 0.01
- Impurity 7 (RT 22.01 min, RRT 1.07) content ([4]; RH75%, 10 days): 0.01
- Impurity 10 (RT 33.01 min, RRT 1.61) content ([4]; RH75%, 10 days): 0.02
- Impurity 11 (RT 33.72 min, RRT 1.65) content ([4]; RH75%, 10 days): 0.01
- Impurity 12 (RT 34.69 min, RRT 1.69) content ([4]; RH75%, 10 days): 0.01
- Impurity 13 (RT 39.10 min, RRT 1.91) content ([4]; RH75%, 10 days): 0.02
- Number of impurities ([4]; RH75%, 10 days): 6
- Total content of impurities (%) ([4]; RH75%, 10 days): 0.08%
SMILES: CCOc1ccc(Cc2cc([C@@H]3O[C@H](CO)[C@@H](O)[C@H](O)[C@H]3O)ccc2Cl)cc1.C[C@H](O)CO.O

- Impurity RRT0.57 content ([5]; 0 day): 0.01
- Impurity RRT0.93 content ([5]; 0 day): 0.01
- Impurity RRT2.25 content ([5]; 0 day): 0.01
- Number of impurities ([5]; 0 day): 3
- Property (appearance) ([5]; 0 day): White
- Total content of impurities ([5]; 0 day): 0.03%
- Impurity RRT0.57 content [5, 9]: 0.01
- Impurity RRT0.93 content [5, 9]: 0.01
- Impurity RRT2.25 content [5, 9]: 0.01
- Number of impurities [5, 9]: 3
- Property (appearance) [5, 9]: White
- Total content of impurities [5, 9]: 0.03%
- Impurity RRT0.57 content [5, 10]: 0.05
- Impurity RRT0.73 content [5, 10]: 0.01
- Impurity RRT0.93 content [5, 10]: 0.01
- Impurity RRT1.12 content [5, 10]: 0.01
- Impurity RRT2.25 content [5, 10]: 0.01
- Number of impurities [5, 10]: 5
- Property (appearance) [5, 10]: White
- Total content of impurities [5, 10]: 0.09%
- Impurity RRT0.57 content [5, 11]: 0.01
- Impurity RRT0.93 content [5, 11]: 0.01
- Impurity RRT2.25 content [5, 11]: 0.01
- Number of impurities [5, 11]: 3
- Property (appearance) [5, 11]: White
- Total content of impurities [5, 11]: 0.03%
- Crystal form stability (XRPD) ([5]; each influencing factor for 10 days vs 0 day): did not change
- Number of impurities detected and total content of impurities detected, change ([5]; high temperature 60° C. and high humidity of RH75% for 10 days vs 0 day): did not show an increasing trend
- Weight change ([5]; high temperature of 60° C. and high humidity of RH75%): basically remained unchanged
- Maximum detected amount of new impurities [5, 12]: about 0.05%
- New impurities detected (number) [5, 12]: 2
- Solubility (Acetate buffer of pH 4.0, 25° C., 12 h): 32650 µg/mL
- Solubility (Acetate buffer of pH 4.0, 25° C., 24 h): 32660 µg/mL
- Solubility (Artificial gastric juice, 25° C., 12 h): 31160 µg/mL
- Solubility (Artificial gastric juice, 25° C., 24 h): 32080 µg/mL
- Solubility (Artificial intestinal juice, 25° C., 12 h): 30350 µg/mL
- Solubility (Artificial intestinal juice, 25° C., 24 h): 30890 µg/mL
- Solubility (Citrate buffer of pH 3.0, 25° C., 12 h): 33870 µg/mL
- Solubility (Citrate buffer of pH 3.0, 25° C., 24 h): 34230 µg/mL
- Solubility (Hydrochloric acid of pH 1.0, 25° C., 12 h): 34920 µg/mL
- Solubility (Hydrochloric acid of pH 1.0, 25° C., 24 h): 35120 µg/mL
- Solubility (Phosphate buffer of pH 6.8, 25° C., 12 h): 31280 µg/mL
- Solubility (Phosphate buffer of pH 6.8, 25° C., 24 h): 33340 µg/mL
- Solubility (Water, 25° C., 12 h): 35120 µg/mL
- Solubility (Water, 25° C., 24 h): 34560 µg/mL
- Solubility in different pH media (summary over media, 25° C.): about 30 μg/ml
- Solubility in different pH media (words) (summary over media, 25° C.): almost insoluble
SMILES: CNCC(=O)O.Cc1ccc([C@@H]2O[C@H](CO)[C@@H](O)[C@H](O)[C@H]2O)cc1Cc1ccc(-c2ccc(F)cc2)s1 [canagliflozin-sarcosine cocrystal]

- Hygroscopicity [6]: does not have hygroscopicity
- Percentage of weight gain (%) [6]: 0.00%
- Solubility (Water, 25° C., 24 h): 1590 µg/mL
- solubility at 12 h (physchem; acetate buffer of pH 4.0, 25 °C, pH 4, aqueous buffer): 1640 µg/mL
- solubility at 24 h (physchem; acetate buffer, 25 °C, pH 4, aqueous buffer): 1620 µg/mL
- Solubility (physchem; aqueous media of different pH, 25 °C, aqueous buffer): 1400 to 1600 µg/mL
- solubility at 12 h (physchem; [13]): 1560 µg/mL
- solubility at 24 h (physchem; [13]): 1550 µg/mL
- solubility at 12 h (physchem; [14]): 1400 µg/mL
- solubility at 24 h (physchem; [14]): 1430 µg/mL
- solubility at 12 h (physchem; [15]): 1620 µg/mL
- solubility at 24 h (physchem; [15]): 1610 µg/mL
- solubility at 12 h (physchem; [16]): 1600 µg/mL
- solubility at 24 h (physchem; [16]): 1560 µg/mL
- solubility at 12 h (physchem; [17]): 1580 µg/mL
- solubility at 24 h (physchem; [17]): 1580 µg/mL
- Average yield (%) after sieving [1]: 91.8%
- Situations after sieving [1]: Almost no large particles on the
- Yield after sieving (%, n = 3), single runs [1]: 93.6, % and 90.5, % and 91.3%
- D10 (μm) [2]: 5.151 μm
- D50 (μm) [2]: 24.83 μm
- D90 (μm) [2]: 89.93 μm
- Angle of repose (°) [3]: 40 °
- Bulk density [3]: 0.40 g/mL
- Tap density [3]: 0.58 g/mL
- Impurity 10 (RT 33.01 min, RRT 1.61) content ([4]; 0 day): 0.03
- Impurity 11 (RT 33.72 min, RRT 1.65) content ([4]; 0 day): 0.01
- Impurity 12 (RT 34.69 min, RRT 1.69) content ([4]; 0 day): 0.03
- Impurity 13 (RT 39.10 min, RRT 1.91) content ([4]; 0 day): 0.01
- Number of impurities ([4]; 0 day): 4
- Property (appearance) ([4]; 0 day): White
- Total content of impurities (%) ([4]; 0 day): 0.07%
- Impurity 10 (RT 33.01 min, RRT 1.61) content [4, 7]: 0.02
- Impurity 11 (RT 33.72 min, RRT 1.65) content [4, 7]: 0.01
- Impurity 12 (RT 34.69 min, RRT 1.69) content [4, 7]: 0.02
- Impurity 13 (RT 39.10 min, RRT 1.91) content [4, 7]: 0.01
- Number of impurities [4, 7]: 4
- Property (appearance) [4, 7]: White
- Total content of impurities (%) [4, 7]: 0.06%
- Impurity 10 (RT 33.01 min, RRT 1.61) content [4, 8]: 0.02
- Impurity 11 (RT 33.72 min, RRT 1.65) content [4, 8]: 0.01
- Impurity 12 (RT 34.69 min, RRT 1.69) content [4, 8]: 0.02
- Impurity 13 (RT 39.10 min, RRT 1.91) content [4, 8]: 0.01
- Number of impurities [4, 8]: 4
- Property (appearance) [4, 8]: White
- Total content of impurities (%) [4, 8]: 0.05%
- Impurity 10 (RT 33.01 min, RRT 1.61) content ([4]; RH75%, 10 days): 0.02
- Impurity 11 (RT 33.72 min, RRT 1.65) content ([4]; RH75%, 10 days): 0.01
- Impurity 12 (RT 34.69 min, RRT 1.69) content ([4]; RH75%, 10 days): 0.02
- Impurity 13 (RT 39.10 min, RRT 1.91) content ([4]; RH75%, 10 days): 0.01
- Number of impurities ([4]; RH75%, 10 days): 4
- Property (appearance) ([4]; RH75%, 10 days): White
- Total content of impurities (%) ([4]; RH75%, 10 days): 0.06%
- Number of impurities detected and total content of impurities detected, change ([4]; all the test conditions, 10 days vs 0 day): did not increase
- Crystal form stability (XRPD) ([4]; each influencing factor (60° C., 5000LX, RH75%) for 10 days vs 0 day): did not change
SMILES: CCOc1ccc(Cc2cc([C@@H]3O[C@H](CO)[C@@H](O)[C@H](O)[C@H]3O)ccc2Cl)cc1 [dapagliflozin-sarcosine cocrystal]
